Source: patent US9505772B2, “Aromatic ring compound” (TAKEDA PHARMACEUTICAL COMPANY LIMITED, priority 2012, dated 2016)

Tests used:
[1] = target: T1, human MCHR1 (Homo sapiens, UniProt Q99705); experiment: Human MCH receptor 1 (MCHR1) binding inhibitory activity, binding assay with [125I]-MCH(4-19); conditions: test compound 0.1 μM, human MCHR1-expressing CHO cell membrane fraction, read-out: Binding inhibition rate % (0.1 μM)
T1 construct: expressed in transfected cells; host or cells: CHO cell clone 57 (described in WO01/82925); membrane fraction
T1 sequence (Q99705 whole entry): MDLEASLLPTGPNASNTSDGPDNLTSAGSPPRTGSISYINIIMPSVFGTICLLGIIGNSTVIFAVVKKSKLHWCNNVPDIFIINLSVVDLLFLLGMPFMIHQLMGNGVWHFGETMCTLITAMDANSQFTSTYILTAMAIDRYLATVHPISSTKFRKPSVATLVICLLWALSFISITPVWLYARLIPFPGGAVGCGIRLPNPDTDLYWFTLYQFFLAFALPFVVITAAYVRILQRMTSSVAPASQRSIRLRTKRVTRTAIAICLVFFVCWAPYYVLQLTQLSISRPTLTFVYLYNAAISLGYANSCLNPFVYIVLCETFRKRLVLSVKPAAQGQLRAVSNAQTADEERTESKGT
Description: Determination of Human MCH Receptor 1 (MCHR1) Binding Inhibitory Activity of Test Compound Using Binding Assay
1. Preparation of Membrane Fraction
Using human MCHR1(=SLC-1 receptor)-expressing CHO cell clone 57 described in WO01/82925, MCHR1-expressing CHO cellular membrane fractions were prepared by the following method.
In phosphate buffered saline (pH 7.4) supplemented with 5 mM EDTA (ethylenediaminetetraacetic acid) were respectively suspended human MCHR1-expressing CHO cells (1×10^8 cells) and centrifuged. Homogenate buffer (10 mL, 10 mM NaHCO3, 5 mM EDTA, pH 7.5, 0.5 mM PMSF (phenylmethylsulfonyl fluoride), 20 mg/L leupeptin, 4 mg/L E-64, 1 mg/L pepstatin A) was added to the pellets of the cells and, using Polytron Homogenizer, the mixture was homogenated. The supernatant obtained after centrifugation at 400×g for 10 min was further centrifuged at 100,000×g for 1 hr to give precipitate of the membrane fraction. The precipitate were suspended in 2 mL of assay buffer [20 mM Tris-HCl (pH 7.5), 5 mM EDTA, 0.5 mM PMSF, 20 mg/L leupeptin, 4 mg/L E-64, 1 mg/L pepstatin A]. The membrane fractions were suspended in assay buffer to a protein concentration of 2 mg/mL, and after dispensing, preserved at −80° C. and used upon thawing each time when in use.
The MCHR1 ligand binding inhibitory activity of the test compound was determined as follows.
An MCHR1-expressing CHO cellular membrane fraction (173 μL) diluted with an assay buffer was dispensed to a 96 well polypropylene plate (3363, Corning). DMSO solution (2 μL), 33 μM cold MCH(1-19) diluted with DMSO solution (2 μL), or a test compound solution diluted with DMSO solution to various concentrations (2 μL) was added, and lastly, [^125I]-MCH(4-19) diluted with assay buffer (hereinafter, sometimes to be referred to as “hot MCH”, 25 μL) was added to each well. The mixture was reacted with stirring at room temperature for 1 hr, and the plate was set on FilterMate Harvester (PerkinElmer). Using a treating glass filter plate (GF/C, PerkinElmer) with polyethyleneimine, which had been previously set, the plate was suction-filtered and washed three times with washing buffer (50 mM Tris-HCl buffer pH 7.5). The glass filter plate was dried, MicroScinti0 (PerkinElmer) was added at 25 μL/well, and the resulting radioactivity was measured by TopCount liquid scintillation counter (PerkinElmer). The binding inhibition rate of the test compound was calculated by the following formula. Binding inhibition (%)=100−(radioactivity upon addition of test compound and hot MCH−radioactivity upon addition of cold MCH and hot MCH solution)/(radioactivity upon addition of DMSO solution and hot MCH−radioactivity upon addition of cold MCH and hot MCH solution)×100
The binding inhibition rates (%) of test compounds (0.1 μM) as measured using human MCHR1-expressing CHO cell are shown in Table 2.

[2] = target: T1, human MCHR1; experiment: MCH receptor 1 antagonistic activity, Ca2+ mobilization assay; type: cell-based; conditions: test compound 0.1 μM; human MCHR1-expressing CHO cells (clone #4); MCH(4-19) 2 nM; read-out: Inhibition rate % (0.1 μM)
Description: Measurement of MCH Receptor 1 Antagonistic Activity of Test Compound Using Ca^2+ Mobilization Assay
Using an expression vector plasmid introduced with human MCHR1 gene for expression in animal cells, human MCHR1 gene was introduced into CHO cells (CHO dhfr^−) by Lipofectamine LTX (Invitrogen). The cells were cultured in selection MEMα medium [445 mL of MEMα medium without nucleic acid and added with 5 mL of Penicillin-Streptomycin (Invitrogen) and 50 mL of dialyzed fetal bovine serum]. Colony 24 clones grown in the selection medium, which were human MCHR1 gene-expressing CHO cell candidates, were selected. […] In the following test, this human MCHR1-expressing CHO cell (clone #4) was used. An integrated dispensing function fluorometer (CellLux, PerkinElmer) was used for Ca^2+ mobilization assay. The CHO cells were sown in a 96 well plate (type 3904, Corning) with a black wall and clear well bottom at a density of 20000 cells/well, and cultured in an incubator for about 24 hr at 5% CO2, 37° C. The medium was removed, and the cells were washed with phosphate buffered saline (PBS). A Ca^2+ indicator dye reagent (DOJINDO LABORATORIES, Ca screening no-wash kit Fluo4) was added at 100 μL/well, and the dye was allowed to penetrate into the cell for 30 min in an incubator at 5% CO2, 37° C. The plate was set on a plate reader. First, a test compound solution diluted with an assay buffer [10 mM HEPES (pH 7.4), 1× assay buffer containing 0.1% BSA (DOJINDO LABORATORIES, attached to Ca screening no-wash kit Fluo4)] or DMSO solution was added at 50 μL/well, and then ligand MCH (4-19) peptide (final concentration 2 nM) diluted with assay buffer or DMSO was added at 50 μL/well, during which changes in intracellular fluorescence were measured at 2 second intervals. The antagonistic activity of the test compound was calculated by the following formula and shown as an inhibition rate (%) wherein the intracellular fluorescence activity resulting from the stimulation by the addition of ligand MCH (4-19) peptide was 100% and that of the well added with DMSO solution alone was 0%. inhibitory rate (%)=100−[fluorescence activity upon addition of test compound and MCH(4-19) peptide solution−fluorescence activity upon addition of DMSO solution only]/[fluorescence activity upon addition of DMSO solution and MCH(4-19) peptide solution−fluorescence activity upon addition of DMSO solution only]×100
The inhibition rates (%) of test compounds (0.1 μM) as antagonist activity measured using human MCHR1-expressing CHO cells (clone #4) are shown in the following Table 3.

COc1cc(-n2ccc3oc(-c4ccccc4)cc3c2=O)ccc1OCC1(C#N)CC1 [Example 20, 1-((2-Methoxy-4-(4-oxo-2-phenylfuro[3,2-c]pyridin-5(4H)-yl)phenoxy)methyl)cyclopropanecarbonitrile]
inhibition at 0.1 µM [1]: 58%

COc1cc(-n2ccc3oc(-c4ccc(Cl)cc4)cc3c2=O)ccc1OCC1CCO1 (stereo not drawn) [Example 43, 2-(4-Chlorophenyl)-5-(3-methoxy-4-(oxetan-2-ylmethoxy)phenyl)furo[3,2-c]pyridin-4(5H)-one]
inhibition at 0.1 µM [1]: 92%
inhibition at 0.1 µM [2]: 99%

COc1cc(-n2ccc3oc(-c4ccc(Cl)cc4)cc3c2=O)ccc1OCC(N)=O [Example 50, 2-(4-(2-(4-Chlorophenyl)-4-oxofuro[3,2-c]pyridin-5(4H)-yl)-2-methoxyphenoxy)acetamide]
inhibition at 0.1 µM [1]: 85%

COc1cc(-n2ccc3oc(-c4ccc(Cl)cc4)cc3c2=O)ccc1OCC1CC1(F)F (stereo not drawn) [Example 44, 2-(4-Chlorophenyl)-5-(4-((2,2-difluorocyclopropyl)methoxy)-3-methoxyphenyl)furo[3,2-c]pyridin-4(5H)-one]
inhibition at 0.1 µM [1]: 85%
inhibition at 0.1 µM [2]: 45%

COc1cc(-n2cnc3oc(-c4ccc(Cl)cc4)cc3c2=O)ccc1OCC1(C#N)CC1 [Example 6, 1-((4-(6-(4-Chlorophenyl)-4-oxofuro[2,3-d]pyrimidin-3(4H)-yl)-2-methoxyphenoxy)methyl)cyclopropanecarbonitrile]
inhibition at 0.1 µM [1]: 82%
inhibition at 0.1 µM [2]: 37%

COc1cc(-n2ccc3oc(-c4ccc(Cl)cc4)cc3c2=O)ccc1OCC1CCCO1 (stereo not drawn) [Example 36, 2-(4-Chlorophenyl)-5-(3-methoxy-4-(tetrahydrofuran-2-ylmethoxy)phenyl)furo[3,2-c]pyridin-4(5H)-one]
inhibition at 0.1 µM [1]: 95%
inhibition at 0.1 µM [2]: 78%

COc1ccc(-c2cc3c(=O)n(-c4ccc(OCC5(C#N)CC5)c(OC)c4)ccc3o2)cc1 [Example 16, 1-((2-Methoxy-4-(2-(4-methoxyphenyl)-4-oxofuro[3,2-c]pyridin-5(4H)-yl)phenoxy)methyl)cyclopropanecarbonitrile]
inhibition at 0.1 µM [1]: 79%
inhibition at 0.1 µM [2]: 97%

CCC1(COc2ccc(-n3ccc4oc(-c5ccc(Cl)cc5)cc4c3=O)cc2OC)COC1 [Example 48, 2-(4-Chlorophenyl)-5-(4-((3-ethyloxetan-3-yl)methoxy)-3-methoxyphenyl)furo[3,2-c]pyridin-4(5H)-one]
inhibition at 0.1 µM [1]: 71%

COc1cc(-n2ccc3oc(-c4ccc(Cl)cc4)cc3c2=O)ccc1OCC1CCOC1 (stereo not drawn) [Example 39, 2-(4-Chlorophenyl)-5-(3-methoxy-4-(tetrahydrofuran-3-ylmethoxy)phenyl)furo[3,2-c]pyridin-4(5H)-one]
inhibition at 0.1 µM [1]: 96%
inhibition at 0.1 µM [2]: 84%

COc1cc(-n2ccc3oc(-c4ccc(F)cc4)cc3c2=O)ccc1OCC1(C#N)CC1 [Example 10, 1-((4-(2-(4-Fluorophenyl)-4-oxofuro[3,2-c]pyridin-5(4H)-yl)-2-methoxyphenoxy)methyl)cyclopropanecarbonitrile]
inhibition at 0.1 µM [1]: 83%
inhibition at 0.1 µM [2]: 86%

COc1cc(-n2ccc3oc(-c4ccc(F)cn4)cc3c2=O)ccc1OCC1(C#N)CC1 [Example 21, 1-((4-(2-(5-Fluoropyridin-2-yl)-4-oxofuro[3,2-c]pyridin-5(4H)-yl)-2-methoxyphenoxy)methyl)cyclopropanecarbonitrile]
inhibition at 0.1 µM [1]: 42%

COc1cc(-n2ccc3oc(-c4ccc(Cl)cc4)cc3c2=O)ccc1O [Example 30, 2-(4-Chlorophenyl)-5-(4-hydroxy-3-methoxyphenyl)furo[3,2-c]pyridin-4(5H)-one]
inhibition at 0.1 µM [1]: 66%

COc1cc(-n2ccc3oc(-c4ccc(Cl)cc4)cc3c2=O)ccc1OCC1(C#N)CC1 [Example 5, 1-((4-(2-(4-Chlorophenyl)-4-oxofuro[3,2-c]pyridin-5(4H)-yl)-2-methoxyphenoxy)methyl)cyclopropanecarbonitrile]
inhibition at 0.1 µM [1]: 97%
inhibition at 0.1 µM [2]: 100%

COc1cc(-n2ccc3oc(-c4ccc(OC(F)(F)F)cc4)cc3c2=O)ccc1OCC1(C#N)CC1 [Example 28, 1-((2-Methoxy-4-(4-oxo-2-(4-(trifluoromethoxy)phenyl)furo[3,2-c]pyridin-5(4H)-yl)phenoxy)methyl)cyclopropanecarbonitrile]
inhibition at 0.1 µM [1]: 63%
inhibition at 0.1 µM [2]: 24%

COc1cc(-n2ccc3oc(-c4ccc(C(F)(F)F)cc4)cc3c2=O)ccc1OCC1(C#N)CC1 [Example 27, 1-((2-Methoxy-4-(4-oxo-2-(4-(trifluoromethyl)phenyl)furo[3,2-c]pyridin-5(4H)-yl)phenoxy)methyl)cyclopropanecarbonitrile]
inhibition at 0.1 µM [1]: 60%

COC(=O)c1ccc(-n2ccc3oc(-c4ccc(Cl)cc4)cc3c2=O)cc1OC [Example 24, Methyl 4-(2-(4-chlorophenyl)-4-oxofuro[3,2-c]pyridin-5(4H)-yl)-2-methoxybenzoate]
inhibition at 0.1 µM [1]: 47%

COc1cc(-n2ccc3oc(-c4ccc(Cl)cc4)cc3c2=O)ccc1OCCCC(N)=O [Example 51, 4-(4-(2-(4-Chlorophenyl)-4-oxofuro[3,2-c]pyridin-5(4H)-yl)-2-methoxyphenoxy)butanamide]
inhibition at 0.1 µM [1]: 90%

N#CC1(COc2ccc(-n3ccc4oc(-c5ccc(Cl)cc5)cc4c3=O)cc2Cl)CC1 [Example 8, 1-((2-Chloro-4-(2-(4-chlorophenyl)-4-oxofuro[3,2-c]pyridin-5(4H)-yl)phenoxy)methyl)cyclopropanecarbonitrile]
inhibition at 0.1 µM [1]: 76%

COc1cc(-n2ccc3oc(-c4ccccc4F)cc3c2=O)ccc1OCC1(C#N)CC1 [Example 15, 1-((4-(2-(2-Fluorophenyl)-4-oxofuro[3,2-c]pyridin-5(4H)-yl)-2-methoxyphenoxy)methyl)cyclopropanecarbonitrile]
inhibition at 0.1 µM [1]: 17%

CCc1cc(-n2ccc3oc(-c4ccc(Cl)cc4)cc3c2=O)ccc1OCC1(C#N)CC1 [Example 47, 1-((4-(2-(4-Chlorophenyl)-4-oxofuro[3,2-c]pyridin-5(4H)-yl)-2-ethylphenoxy)methyl)cyclopropanecarbonitrile]
inhibition at 0.1 µM [1]: 74%

COc1cc(-n2ccc3oc(-c4ccc(Cl)cc4)cc3c2=O)ccc1C(=O)NCC1CC1 [Example 45, 4-(2-(4-Chlorophenyl)-4-oxofuro[3,2-c]pyridin-5(4H)-yl)-N-(cyclopropylmethyl)-2-methoxybenzamide]
inhibition at 0.1 µM [1]: 74%
